In patent publication EP1247803A2, “Indolinone compounds suitable for modulation of protein kinases” (Sugen, Inc., priority 1996, dated 1998):

biological target: T1, FLK-1 receptor (Mus musculus, UniProt P35918); assay: FLK-1 ELISA (kinase activity of the FLK-1 receptor in FLK-1/NIH3T3 cells, VEGF stimulated); assay type: cell-based
T1 construct: expressed in transfected cells; host or cells: NIH3T3 C7#3
Outline: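 NIH3T3 C7#3 cells expressing FLK-1 were seeded at 25.000 cells/well, serum-starved overnight in 0.1% FBS, then treated with compound for two hours at 37°C (final DMSO 0.5%) before VEGF stimulation. Receptor was captured on anti-rabbit IgG-coated ELISA plates bearing affinity-purified anti-FLK-1 antiserum.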

T1 sequence (P35918 20-1345): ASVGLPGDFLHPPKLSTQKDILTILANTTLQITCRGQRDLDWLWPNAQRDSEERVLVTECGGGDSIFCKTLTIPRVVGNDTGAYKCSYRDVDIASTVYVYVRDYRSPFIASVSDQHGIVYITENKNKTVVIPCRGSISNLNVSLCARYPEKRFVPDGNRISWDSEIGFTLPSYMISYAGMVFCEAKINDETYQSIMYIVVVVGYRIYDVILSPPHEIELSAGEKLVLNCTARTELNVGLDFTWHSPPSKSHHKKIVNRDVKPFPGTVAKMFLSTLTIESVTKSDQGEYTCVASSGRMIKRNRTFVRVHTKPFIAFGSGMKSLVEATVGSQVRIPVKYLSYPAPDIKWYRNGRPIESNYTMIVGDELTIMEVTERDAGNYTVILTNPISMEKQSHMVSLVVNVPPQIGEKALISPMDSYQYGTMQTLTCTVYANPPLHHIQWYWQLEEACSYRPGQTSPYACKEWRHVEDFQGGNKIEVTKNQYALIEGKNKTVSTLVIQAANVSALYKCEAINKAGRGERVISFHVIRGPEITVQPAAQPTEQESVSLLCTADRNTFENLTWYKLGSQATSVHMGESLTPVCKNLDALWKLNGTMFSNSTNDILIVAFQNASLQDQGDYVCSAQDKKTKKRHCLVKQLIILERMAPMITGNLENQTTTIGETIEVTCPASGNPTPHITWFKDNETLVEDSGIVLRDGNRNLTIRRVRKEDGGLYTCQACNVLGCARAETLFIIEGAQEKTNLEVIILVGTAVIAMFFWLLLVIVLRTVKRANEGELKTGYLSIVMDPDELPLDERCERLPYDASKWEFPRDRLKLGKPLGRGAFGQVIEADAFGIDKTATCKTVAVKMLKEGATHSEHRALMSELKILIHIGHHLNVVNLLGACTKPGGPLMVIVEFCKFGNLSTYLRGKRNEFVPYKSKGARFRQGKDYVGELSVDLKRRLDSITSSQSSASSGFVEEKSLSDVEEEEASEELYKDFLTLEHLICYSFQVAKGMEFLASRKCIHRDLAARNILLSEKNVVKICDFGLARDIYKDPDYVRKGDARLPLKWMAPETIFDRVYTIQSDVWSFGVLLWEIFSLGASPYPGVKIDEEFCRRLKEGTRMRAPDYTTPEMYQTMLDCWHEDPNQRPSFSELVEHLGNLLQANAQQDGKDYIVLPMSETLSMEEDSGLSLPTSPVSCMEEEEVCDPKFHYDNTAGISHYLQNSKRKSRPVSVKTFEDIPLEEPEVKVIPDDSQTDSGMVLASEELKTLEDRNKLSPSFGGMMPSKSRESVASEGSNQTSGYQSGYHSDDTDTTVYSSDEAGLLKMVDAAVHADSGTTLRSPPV

Structure (SMILES)	Fik Kinase %Inhibition [%]
O=C1Nc2ccc(I)cc2C1=Cc1ncc[nH]1 [10720/B11]	-20.3
Cc1[nH]c(C=C2C(=O)Nc3ccc(I)cc32)c(Br)c1Br [10717/B11]	11.4
CCOc1cc(C=C2C(=O)Nc3c(Br)cc(Br)cc32)ccc1O [10720/A09]	8.1
O=C1Nc2ccc(I)cc2C1=Cc1ccc(Br)cc1 [10717/B08]	-0.9
COc1ccc(C=C2C(=O)Nc3ccc(S(=O)(=O)Nc4ccc(C(F)(F)F)cc4)cc32)c(OC)c1 [10719/E04]	31.2
Cc1c(Br)ccc2c1C(=Cc1ccccc1O)C(=O)N2 [10720/C05]	-36.1
COc1cc(OC)c(C=C2C(=O)Nc3ccc(S(=O)(=O)Nc4ccc(C(F)(F)F)cc4)cc32)c(OC)c1 [10719/E06]	17.1
CN(C)c1ccc(C=C2C(=O)Nc3ccc(CCCl)cc32)cc1 [10719/G08]	3.2
COc1cc(OC)c(C=C2C(=O)Nc3ccc(S(=O)(=O)N4CCOCC4)cc32)c(OC)c1 [10719/F06]	13.5
CNS(=O)(=O)c1ccc2c(c1)C(=Cc1ccc(O)c(O)c1)C(=O)N2 [10719/D03]	4.8
COc1cc(OC)c(C=C2C(=O)Nc3ccc(CCCl)cc32)c(OC)c1 [10719/G06]	23.2
CNS(=O)(=O)c1ccc2c(c1)C(=Cc1c(OC)cc(OC)cc1OC)C(=O)N2 [10719/D06]	25.8
Cc1c(Br)ccc2c1C(=Cc1ncc[nH]1)C(=O)N2 [10720/C11]	52.5
O=C1Nc2c(Br)cc(Br)cc2C1=Cc1c(F)cc(F)cc1F [10720/A02]	4.7
Cc1c(Br)ccc2c1C(=Cc1cccs1)C(=O)N2 [10717/C03]	-7.7
Cc1c(Br)ccc2c1C(=Cc1c(F)cc(F)cc1F)C(=O)N2 [10720/C02]	18.0
COc1cc(O)ccc1C=C1C(=O)Nc2c(Br)cc(Br)cc21 [10720/A03]	17.7
COc1ccc(C=C2C(=O)Nc3ccc(I)cc32)cc1OC [10720/B04]	9.8
COc1cc(O)ccc1C=C1C(=O)Nc2ccc(Br)c(C)c21 [10720/C03]	15.1
CCOc1ccc(C=C2C(=O)Nc3ccc(S(=O)(=O)Nc4ccc(C(F)(F)F)cc4)cc32)cc1OC [10719/E02]	26.1
CNS(=O)(=O)c1ccc2c(c1)C(=Cc1c(F)cc(F)cc1F)C(=O)N2 [10720/D02]	12.1
O=C1Nc2ccc(I)cc2C1=Cc1ccccc1 [10720/B06]	7.3
CSc1ccc(C=C2C(=O)Nc3c(Br)cc(Br)cc32)s1 [10720/A07]	6.6
CN(C)c1ccc(C=C2C(=O)Nc3ccc(S(=O)(=O)Nc4ccc(C(F)(F)F)cc4)cc32)cc1 [10719/E08]	21.8
Cc1c(Br)ccc2c1C(=Cc1ccccc1)C(=O)N2 [10720/C06]	12.2

Structure (SMILES)	Fik Kinase %Inhibition [%]
COc1ccc(C=C2C(=O)Nc3c(Br)cc(Br)cc32)cc1OC [10720/A04]	12.3
O=C1Nc2ccc(S(=O)(=O)Nc3ccc(C(F)(F)F)cc3)cc2C1=Cc1ccc(O)cc1 [10719/E07]	26.7
CCc1c(C)[nH]c(C=C2C(=O)Nc3ccc(S(=O)(=O)NC)cc32)c1C [10719/D05]	16.3
O=C1Nc2ccc(I)cc2C1=Cc1ccc[nH]1 [10717/B09]	-40.7
O=C1Nc2ccc(S(=O)(=O)N3CCOCC3)cc2C1=Cc1ccc(O)c(O)c1 [10719/F03]	11.2
CSc1ccc(C=C2C(=O)Nc3ccc(Br)c(C)c32)s1 [10720/C07]	20.7
O=C1Nc2c(Br)cc(Br)cc2C1=Cc1ncc[nH]1 [10720/A11]	-0.6
CCOc1ccccc1C=C1C(=O)Nc2ccc(Br)c(C)c21 [10717/C02]	4.1
CNS(=O)(=O)c1ccc2c(c1)C(=Cc1ccc(O)cc1)C(=O)N2 [10719/D07]	-123.5
Cc1c(Br)ccc2c1C(=Cc1cccc([N+](=O)[O-])c1)C(=O)N2 [10719/C10]	11.8
CCOc1ccc(C=C2C(=O)Nc3ccc(CCCl)cc32)cc1OC [10719/G02]	27.3
COc1ccc(O)c(C=C2C(=O)Nc3ccc(Br)c(C)c32)c1 [10720/C10]	-21.1
CCc1c(C)[nH]c(C=C2C(=O)Nc3ccc(S(=O)(=O)Nc4ccc(C(F)(F)F)cc4)cc32)c1C [10719/E05]	21.5
O=C1Nc2ccc(CCCl)cc2C1=Cc1ccc(F)cc1Cl [10719/G09]	18.1
O=C1Nc2ccc(S(=O)(=O)N3CCOCC3)cc2C1=Cc1ccc(F)cc1C(F)(F)F [10719/F11]	11.6
CNS(=O)(=O)c1ccc2c(c1)C(=Cc1cccc([N+](=O)[O-])c1)C(=O)N2 [10719/D10]	8.3
COc1ccc(O)c(C=C2C(=O)Nc3ccc(I)cc32)c1 [10720/B10]	-5.5
O=C1Nc2ccc(CCCl)cc2C1=Cc1ccc(O)cc1 [10719/G07]	20.1
O=C1Nc2ccc(CCCl)cc2C1=Cc1ccc(F)cc1C(F)(F)F [10719/G11]	6.9
O=C1Nc2ccc(I)cc2C1=Cc1c(F)cc(F)cc1F [10720/B02]	6.5
O=C1Nc2c(Br)cc(Br)cc2C1=Cc1ccccc1O [10720/A05]	8.0
CCOc1ccc(C=C2C(=O)Nc3ccc(S(=O)(=O)N4CCOCC4)cc32)cc1OC [10719/F02]	28.6
O=C1Nc2ccc(CCCl)cc2C1=Cc1cccc([N+](=O)[O-])c1 [10719/G10]	9.7
O=C1Nc2c(Br)cc(Br)cc2C1=Cc1ccccc1 [10720/A06]	5.6
COc1ccc(C=C2C(=O)Nc3ccc(Br)c(C)c32)cc1OC [10720/C04]	15.3

Structure (SMILES)	Fik Kinase %Inhibition [%]
O=C1Nc2ccc(I)cc2C1=Cc1ccccc1O [10720/B05]	11.6
O=C1Nc2ccc(S(=O)(=O)Nc3ccc(C(F)(F)F)cc3)cc2C1=Cc1ccc(F)cc1C(F)(F)F [10719/E11]	26.3
O=C1Nc2ccc(S(=O)(=O)Nc3ccc(C(F)(F)F)cc3)cc2C1=Cc1ccc(F)cc1Cl [10719/E09]	13.5
COc1ccc(C=C2C(=O)Nc3ccc(S(=O)(=O)N4CCOCC4)cc32)c(OC)c1 [10719/F04]	26.6
O=C1Nc2ccc(S(=O)(=O)N3CCOCC3)cc2C1=Cc1cccc([N+](=O)[O-])c1 [10719/F10]	10.4
Cc1cc(O)cc(O)c1C=C1C(=O)Nc2ccc(I)cc21 [10720/B08]	3.6
CCOc1cc(C=C2C(=O)Nc3ccc(Br)c(C)c32)ccc1O [10720/C09]	12.1
CCOc1cc(C=C2C(=O)Nc3ccc(I)cc32)ccc1O [10720/B09]	10.1
COc1ccc(C=C2C(=O)Nc3ccc(CCCl)cc32)c(OC)c1 [10719/G04]	11.5
O=C1Nc2ccc(S(=O)(=O)Nc3ccc(C(F)(F)F)cc3)cc2C1=Cc1ccc(O)c(O)c1 [10719/E03]	17.1
CNS(=O)(=O)c1ccc2c(c1)C(=Cc1ccc(OC)cc1OC)C(=O)N2 [10719/D04]	27.8
Cc1c(Br)ccc2c1C(=Cc1ccc(F)cc1C(F)(F)F)C(=O)N2 [10719/C11]	9.9
Cc1cc(O)cc(O)c1C=C1C(=O)Nc2c(Br)cc(Br)cc21 [10720/A08]	-2.2
O=C1Nc2ccc(CCCl)cc2C1=Cc1ccc(O)c(O)c1 [10719/G03]	-25.8
CCc1c(C)[nH]c(C=C2C(=O)Nc3ccc(CCCl)cc32)c1C [10719/G05]	18.0
O=C1Nc2ccc(S(=O)(=O)N3CCOCC3)cc2C1=Cc1ccc(F)cc1Cl [10719/F09]	-6.5
CCOc1ccc(C=C2C(=O)Nc3ccc(S(=O)(=O)NC)cc32)cc1OC [10719/D02]	9.7
CSc1ccc(C=C2C(=O)Nc3ccc(I)cc32)s1 [10720/B07]	12.0
COc1cc(O)ccc1C=C1C(=O)Nc2ccc(I)cc21 [10720/B03]	6.4
COc1ccc(O)c(C=C2C(=O)Nc3c(Br)cc(Br)cc32)c1 [10720/A10]	-5.2
CN(C)c1ccc(C=C2C(=O)Nc3ccc(S(=O)(=O)N4CCOCC4)cc32)cc1 [10719/F08]	15.1
CNS(=O)(=O)c1ccc2c(c1)C(=Cc1ccc(N(C)C)cc1)C(=O)N2 [10719/D08]	8.2
Cc1cc(O)cc(O)c1C=C1C(=O)Nc2ccc(Br)c(C)c21 [10720/C08]	10.9
CNS(=O)(=O)c1ccc2c(c1)C(=Cc1ccc(F)cc1Cl)C(=O)N2 [10719/D09]	7.8
Cc1ccc(C=C2C(=O)Nc3ccc(I)cc32)s1 [10717/B07]	-18.3
